# Columns and labels:
# [1] = system: Salmonella typhimurium TA 100, TA 1535, TA 98 and TA 1537 strains and Escherichia coli WP 2 uvrA strains; assay: Reverse mutation test using bacteria (Ames test), with and without metabolic activation; type: cell-based; conditions: 10-5,000 μg/well; with and without Rat Liver S9mix
# Experimental: (6) Reverse Mutation Test Using Bacteria (Ames Test) for Examining Presence of Gentic Toxicity:
# Reverse mutation-inducing activity on bacteria of the test compounds was examined by reverse mutation test using bacteria (Mutat. Res., 113, 173-215). The test was conducted by plate incorporation method using Salmonella typhimurium TA 100, TA 1535, TA 98 and TA 1537 strains and Escherichia coli WP 2 uvrA strains as to both cases of not conducting metabolic activation and conducting metabolic activation. The dosages were set at six levels as 10, 50, 100, 500, 1000 and 5,000 μg/well.
# Into a sterilized test tube, 0.1 mL of a test compound or a solvent, 0.5 mL of sodium-phosphate buffer (pH=7.4), 0.1 mL of a bacterial suspension and 2 mL of soft agar solution were added and mixed. Where metabolic activation was conducted, […] sodium-phosphate buffer (pH=7.4) was replaced with 0.5 mL of Rat Liver S9mix. The liquid mixture was superposed on the minimum glucose agar medium and after the superposed soft agar solution solidified, the system was cultured at 37° C. for 48 hours. At the end of the culture the number of colonies in which reverse mutation had been induced was visually counted with a colony counter. […]
# [2] = system: Chinese hamster lung fibroblast cells (CHL/IU cells); assay: Chromosome aberration test using mammals' cultured cells; type: cell-based; conditions: short time and continuous treatment, negative = 5% or less
# Experimental: (7) Chromosome Aberration Test Using Mammals' Cultured Cells, for Examining Genetic Toxicity: Presence of clastogenic activity of the test compounds on cultured cells was examined by a chromosome aberration test using mammals' cultured cells (Mutat. Res., 48, 337-354). The test was conducted by short time treatment method and continuous treatment method, using Chinese hamster lung fibroblast cells (CHL/IU cells). […] After the end of the culture, the medium was removed and 5 mL of a fresh medium containing solvent or a test compound at the concentration levels designed as above was added to the dishes where the continuous treatment was intended. In the short time treatment in which no S9mix was added, 3 ML of the fresh medium similar to the above was added, and where S9mix was added, 3 mL of a fresh medium formed by adding 0.5 mL of S9mix to 2.5 mL of the fresh medium similar to the above was added to the respective dishes. […] In the continuous treatment, the culture time was increased to 24 hours. In both the short time treatment and continuous treatment, 50 μL of 10 μg/mL colcemide solution was added at two hours preceding the end of the culture. After the end of the culture, the cells were detached by 0.25% trypsine solution and transferred into a centifugation tube. […]
# steroid sulfatase = biological target: T1, steroid sulfatase (Rattus norvegicus, UniProt P15589); assay: Steroid sulfatase inhibitory activity (in vivo), liver and uterus of ovariectomized rats after oral dosing; conditions: 0.5 mg/kg p.o. once a day for seven days, ovariectomized female SD rats
# T1 construct: The livers and uteri were separately minced with scissors and suspended in cooled PBS containing 250 mM sucrose; from tissue; host or cells: liver and uterus of ovariectomized female SD rats (2,000 x g supernatant of homogenate)
# T1 sequence (P15589 20-577): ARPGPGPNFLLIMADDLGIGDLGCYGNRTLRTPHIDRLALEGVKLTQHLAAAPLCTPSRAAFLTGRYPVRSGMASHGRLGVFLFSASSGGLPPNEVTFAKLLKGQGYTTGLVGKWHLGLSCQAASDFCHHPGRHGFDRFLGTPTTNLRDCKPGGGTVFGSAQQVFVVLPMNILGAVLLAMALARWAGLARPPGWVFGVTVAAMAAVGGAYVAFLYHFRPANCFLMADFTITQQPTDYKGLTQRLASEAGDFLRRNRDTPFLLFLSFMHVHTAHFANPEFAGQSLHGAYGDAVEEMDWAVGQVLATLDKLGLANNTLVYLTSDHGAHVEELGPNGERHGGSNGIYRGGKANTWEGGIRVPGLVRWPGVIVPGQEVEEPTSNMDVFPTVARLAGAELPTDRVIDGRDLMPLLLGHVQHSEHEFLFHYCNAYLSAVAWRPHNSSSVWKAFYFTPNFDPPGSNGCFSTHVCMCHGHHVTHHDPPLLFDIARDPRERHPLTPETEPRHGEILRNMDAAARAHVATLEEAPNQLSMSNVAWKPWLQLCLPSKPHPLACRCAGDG
# Experimental: (2) Measurement of Steroid Sulfatase Inhibitory Activity (in vivo):
# To six/group of female SD rats which had undergone ovariectomy, the test compounds as each suspended in 0.5% polyoxyethylene (20) sorbitan monooleate (Tween 80) were orally administered once a day for seven days. On the next day of the last administration, the rats were sacrificed under ether anesthesia. The bodies were anatomized and their livers and uteri were extracted, which were washed with cooled PBS and stored below −70° C. The livers and uteri were separately minced with scissors and suspended in cooled PBS containing 250 mM sucrose. Each of the suspensions was homogenized with a homogenizer under cooling with ice, from which neclei and cell debris were eliminated by centrifugation at 2,000×g for 20 minutes (4° C.). Protein concentration of each of the supernatant was measured by Bradford's method (Anal. Biochem., 72, 248-254 (1976)).
# To 2-200 μg of the supernatant protein mass and 50 μL of 60 μM estrone-3-sulfate containing about 100 nCi of [6,7-^3H]estrone-3-sulfate (purchased from Perkin Elmer Life Sciences, Boston, Mass., U.S.A.; specific activity, 40-60 Ci/mmol), PBS was added to make the total amount 150 μL, followed by incubation at 37° C. for 30 minutes. After the incubation, the amount of hydrolyzed [6,7-^3H]estrone-3-sulfate was calculated by a method similar to the in vitro measurement in (1) above. Also steroid sulfatase activity per mg of the protein was calculated, and from the amount of the hydrolyzed [6,7-^3H]estrone-3-sulfate and the calculated steroid sulfatase activity per mg of the protein, the tested compound's steroid sulfatase inhibitory rate was determined.
smiles,measurement,setting,value
"NS(=O)(=O)Oc1ccc(N2CCN(CCCC3CCCCC3)CC2)cc1F [Example 24, 4-[4-(3-cyclohexylpropyl)piperazin-1-yl]-2-fluorophenyl-O-sulfamate]",Ames test (reverse mutation inducing activity),[1],negative
same,Chromosome aberration test: Numerical abnormality,[2],negative
same,Chromosome aberration test: Structural abnormality,[2],negative
same,"Inhibitiory rate (0.5 mg/kg, p.o., %) Liver",steroid sulfatase; liver,98.30%
same,"Inhibitiory rate (0.5 mg/kg, p.o., %) Uterus",steroid sulfatase; uterus,97.87%

# Source: patent US7449466B2, “Cyclic aminophenyl sulfamate derivative” (Aska Pharmaceutical Co., Ltd., priority 2003, dated 2008)
